Results as given in patent publication US8613914B2, “Peptidomimetic sulfamide compounds and antiviral uses thereof” (Novartis AG, priority 2009, dated 2013).

Molecular target: HCV NS3-4A serine protease (full-length NS3-4A protein) (Hepatitis C virus genotype 1a (isolate 1) (HCV), UniProt P26664)
Experiment: HCV NS3-4A protease assay
Type: biochemical, HCV genotype 1a
Conditions: strain HCV-1, fluorogenic peptide substrate, read-out: Protease assay Ex. 12 IC50
Description: The inhibitory activity of certain compounds of Table A against HCV NS3-4A serine protease is determined in a homogenous assay using the full-length NS3-4A protein (genotype 1a, strain HCV-1) and a commercially available internally-quenched fluorogenic peptide substrate as described by Taliani, M., et al. 1996 Anal. Biochem. 240:60-67, which is incorporated by reference in its entirety.

Sequence of HCV NS3-4A serine protease (full-length NS3-4A protein) (P26664 1027-1657): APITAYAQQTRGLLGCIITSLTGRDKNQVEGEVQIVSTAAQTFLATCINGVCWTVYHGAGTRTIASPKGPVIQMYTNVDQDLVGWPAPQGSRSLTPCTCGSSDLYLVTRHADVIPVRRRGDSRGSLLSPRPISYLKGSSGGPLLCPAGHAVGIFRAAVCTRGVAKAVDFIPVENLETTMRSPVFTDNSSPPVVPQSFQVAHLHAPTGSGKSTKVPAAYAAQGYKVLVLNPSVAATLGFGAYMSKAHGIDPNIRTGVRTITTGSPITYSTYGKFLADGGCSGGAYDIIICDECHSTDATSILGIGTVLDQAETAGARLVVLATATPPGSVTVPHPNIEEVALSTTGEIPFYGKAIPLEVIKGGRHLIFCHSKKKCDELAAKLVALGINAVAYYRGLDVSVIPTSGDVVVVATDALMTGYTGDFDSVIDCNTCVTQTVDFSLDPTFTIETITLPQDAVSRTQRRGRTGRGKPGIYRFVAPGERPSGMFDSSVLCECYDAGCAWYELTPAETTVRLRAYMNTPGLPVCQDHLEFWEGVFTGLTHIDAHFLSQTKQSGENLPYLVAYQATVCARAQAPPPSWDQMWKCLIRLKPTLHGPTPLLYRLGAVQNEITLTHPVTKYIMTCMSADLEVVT
Sequence of HCV NS3-4A serine protease (full-length NS3-4A protein) (P26664 1658-1711 partner): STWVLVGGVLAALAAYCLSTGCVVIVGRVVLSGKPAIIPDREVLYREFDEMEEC

SMILES | IC50 [nM]
C=C[C@@H]1C[C@]1(NC(=O)[C@@H]1C[C@@]2(CN1C(=O)[C@@H](NC(=O)[C@@H](NC(=O)[C@@H]1CCCN1CC)C1CCCCC1)C(C)(C)C)C(C)(C)C21CCC1)C(=O)NS(=O)(=O)N1CCCCC1 [Compound 95, (5R,8S)-7-[(2S)-2-{[(2S)-2-cyclohexyl-2-({[(2S)-1-ethylpyrrolidin-2-yl]carbonyl}amino)acetyl]amino}-3,3-dimethylbutanoyl]-10,10-dimethyl-N-{(1R,2S)-1-[(piperidin-1-ylsulfonyl)carbamoyl]-2-vinylcyclopropyl}-7-azadispiro[3.0.4.1]decane-8-carboxamide] | 5
C=C[C@@H]1C[C@]1(NC(=O)[C@@H]1C[C@@]2(CN1C(=O)[C@@H](NC(=O)[C@@H](NC(=O)[C@@H]1CCCN1CC)C1(C)CCCCC1)C1(C)CCOCC1)C(C)(C)C21CCC1)C(=O)NS(=O)(=O)N(CC)CC [Compound 153, (5R,8S)-N-[(1R,2S)-1-{[(diethylamino)sulfonyl]carbamoyl}-2-vinylcyclopropyl]-7-[(2S)-2-{[(2S)-2-({[(2S)-1-ethylpyrrolidin-2-yl]carbonyl}amino)-2-(1-methylcyclohexyl)acetyl]amino}-2-(4-methyltetrahydro-2H-pyran-4-yl)acetyl]-10,10-dimethyl-7-azadispiro[3.0.4.1]decane-8-carboxamide] | 1.8
C=C[C@@H]1C[C@]1(NC(=O)[C@@H]1C[C@@]2(CN1C(=O)[C@@H](NC(=O)[C@@H](NC(=O)c1cnccn1)C1CCCCC1)C(C)(C)C)C(C)(C)C21CCC1)C(=O)NS(=O)(=O)N(CC)CC [Compound 173, (5R,8S)-7-[(2S)-2-({(2S)-2-cyclohexyl-2-[(pyrazin-2-ylcarbonyl)amino]acetyl}amino)-3,3-dimethylbutanoyl]-N-[(1R,2S)-1-{[(diethylamino)sulfonyl]carbamoyl}-2-vinylcyclopropyl]-10,10-dimethyl-7-azadispiro[3.0.4.1]decane-8-carboxamide] | 3
C=C[C@@H]1C[C@]1(NC(=O)[C@@H]1C[C@@]2(CN1C(=O)[C@@H](NC(=O)[C@@H](NC(=O)[C@@H]1CCCN1CC(F)F)C1CCCCC1)C1CCOCC1)C(C)(C)C21CCC1)C(=O)NS(=O)(=O)N1CCCC1 [Compound 72, (5R,8S)-7-[(2S)-2-{[(2S)-2-cyclohexyl-2-({[(2S)-1-(2,2-difluoroethyl)pyrrolidin-2-yl]carbonyl}amino)acetyl]amino}-2-(tetrahydro-2H-pyran-4-yl)acetyl]-10,10-dimethyl-N-{(1R,2S)-1-[(pyrrolidin-1-ylsulfonyl)carbamoyl]-2-vinylcyclopropyl}-7-azadispiro[3.0.4.1]decane-8-carboxamide] | 70
C=C[C@@H]1C[C@]1(NC(=O)[C@@H]1C[C@@]2(CN1C(=O)[C@@H](NC(=O)[C@@H](NC(=O)[C@@H]1CCC(F)(F)CN1C(C)C)C1CCCCC1)C(C)(C)C)C(C)(C)C21CCC1)C(=O)NS(=O)(=O)N1CCCC1 [Compound 105, (5R,8S)-7-[(2S)-2-{[(2S)-2-cyclohexyl-2-({[(2S)-5,5-difluoro-1-isopropylpiperidin-2-yl]carbonyl}amino)acetyl]amino}-3,3-dimethylbutanoyl]-10,10-dimethyl-N-{(1R,2S)-1-[(pyrrolidin-1-ylsulfonyl)carbamoyl]-2-vinylcyclopropyl}-7-azadispiro[3.0.4.1]decane-8-carboxamide] | 45
C=C[C@@H]1C[C@]1(NC(=O)C1C[C@@]2(CN1C(=O)[C@@H](NC(=O)c1cccc(C(=O)NC)c1)C(C)(C)C)C(C)(C)C21CCC1)C(=O)NS(=O)(=O)N1CCCC1 (stereo partly drawn) [Compound 88, N-[(1S)-1-{[(5R)-10,10-dimethyl-8-({(1R,2S)-1-[(pyrrolidin-1-ylsulfonyl)carbamoyl]-2-vinylcyclopropyl}carbamoyl)-7-azadispiro[3.0.4.1]dec-7-yl]carbonyl}-2,2-dimethylpropyl]-N′-methylisophthalamide] | 500
C=C[C@@H]1C[C@]1(NC(=O)[C@@H]1C[C@@]2(CN1C(=O)[C@@H](NC(=O)[C@@H](NC(=O)[C@@H]1CCCN1CC)C1CCCCC1)C1CCOCC1)C(C)(C)C21CCC1)C(=O)NS(=O)(=O)N(CC)CC [Compound 96, (5R,8S)-7-[(2S)-2-{[(2S)-2-cyclohexyl-2-({[(2S)-1-ethylpyrrolidin-2-yl]carbonyl}amino)acetyl]amino}-2-(tetrahydro-2H-pyran-4-yl)acetyl]-N-[(1R,2S)-1-{[(diethylamino)sulfonyl]carbamoyl}-2-vinylcyclopropyl]-10,10-dimethyl-7-azadispiro[3.0.4.1]decane-8-carboxamide] | 7
C=C[C@@H]1C[C@]1(NC(=O)[C@@H]1C[C@@]2(CN1C(=O)[C@@H](NC(=O)[C@@H](NC(=O)[C@@H]1CCCCN1C(C)C)C1CCOCC1)C(C)(C)C)C(C)(C)C21CCC1)C(=O)NS(=O)(=O)N1CCCC1 [Compound 44, (5R,8S)-7-[(2S)-2-{[(2S)-2-({[(2S)-1-isopropylpiperidin-2-yl]carbonyl}amino)-2-(tetrahydro-2H-pyran-4-yl)acetyl]amino}-3,3-dimethylbutanoyl]-10,10-dimethyl-N-{(1R,2S)-1-[(pyrrolidin-1-ylsulfonyl)carbamoyl]-2-vinylcyclopropyl}-7-azadispiro[3.0.4.1]decane-8-carboxamide] | 15
C=C[C@@H]1C[C@]1(NC(=O)[C@@H]1C[C@@]2(CN1C(=O)[C@@H](NC(=O)[C@@H](NC(=O)[C@@H]1CCCCN1C1CCCC1)C1CCCCC1)C(C)(C)C)C(C)(C)C21CCC1)C(=O)NS(=O)(=O)N(CC)CC [Compound 64, (5R,8S)-7-[(2S)-2-{[(2S)-2-cyclohexyl-2-({[(2S)-1-cyclopentylpiperidin-2-yl]carbonyl}amino)acetyl]amino}-3,3-dimethylbutanoyl]-N-[(1R,2S)-1-{[(diethylamino)sulfonyl]carbamoyl}-2-vinylcyclopropyl]-10,10-dimethyl-7-azadispiro[3.0.4.1]decane-8-carboxamide] | 2
C=C[C@@H]1C[C@]1(NC(=O)[C@@H]1C[C@@]2(CN1C(=O)[C@@H](NC(=O)[C@@H](NC(=O)[C@@H]1CCCCN1C)C1CCCCC1)C(C)(C)C)C(C)(C)C21CCC1)C(=O)NS(=O)(=O)N(CC)CC [Compound 118, (5R,8S)-7-[(2S)-2-{[(2S)-2-cyclohexyl-2-({[(2S)-1-methylpiperidin-2-yl]carbonyl}amino)acetyl]amino}-3,3-dimethylbutanoyl]-N-[(1R,2S)-1-{[(diethylamino)sulfonyl]carbamoyl}-2-vinylcyclopropyl]-10,10-dimethyl-7-azadispiro[3.0.4.1]decane-8-carboxamide] | 4.5
C=C[C@@H]1C[C@]1(NC(=O)[C@@H]1C[C@@]2(CN1C(=O)[C@@H](NC(=O)[C@@H](NC(=O)[C@@H]1CCCCN1C)C1CCCCC1)C(C)(C)C)C(C)(C)C21CCC1)C(=O)NS(=O)(=O)N(C)CC [Compound 93, (5R,8S)-7-[(2S)-2-{[(2S)-2-cyclohexyl-2-({[(2S)-1-methylpiperidin-2-yl]carbonyl}amino)acetyl]amino}-3,3-dimethylbutanoyl]-N-[(1R,2S)-1-({[ethyl(methyl)amino]sulfonyl}carbamoyl)-2-vinylcyclopropyl]-10,10-dimethyl-7-azadispiro[3.0.4.1]decane-8-carboxamide] | 2
C=C[C@@H]1C[C@]1(NC(=O)[C@@H]1C[C@@]2(CN1C(=O)[C@@H](NC(=O)[C@@H](NC(=O)[C@@H]1CCCCN1C(C)C)C1(C)CCCCC1)C1(C)CCCCC1)C(C)(C)C21CCC1)C(=O)NS(=O)(=O)N(CC)CC [Compound 160, (5R,8S)-N-[(1R,2S)-1-{[(diethylamino)sulfonyl]carbamoyl}-2-vinylcyclopropyl]-7-[(2S)-2-{[(2S)-2-({[(2S)-1-isopropylpiperidin-2-yl]carbonyl}amino)-2-(1-methylcyclohexyl)acetyl]amino}-2-(1-methylcyclohexyl)acetyl]-10,10-dimethyl-7-azadispiro[3.0.4.1]decane-8-carboxamide] | 3
C=C[C@@H]1C[C@]1(NC(=O)[C@@H]1C[C@@]2(CN1C(=O)[C@@H](NC(=O)[C@@H](NC(=O)[C@H]1CCCN1C(C)C)C1CCCCC1)C(C)(C)C)C(C)(C)C21CCC1)C(=O)NS(=O)(=O)N1CCCC1 [Compound 16, (5R,8S)-7-[(2S)-2-{[(2S)-2-cyclohexyl-2-({[(2R)-1-isopropylpyrrolidin-2-yl]carbonyl}amino)acetyl]amino}-3,3-dimethylbutanoyl]-10,10-dimethyl-N-{(1R,2S)-1-[(pyrrolidin-1-ylsulfonyl)carbamoyl]-2-vinylcyclopropyl}-7-azadispiro[3.0.4.1]decane-8-carboxamide] | 2.3
C=C[C@@H]1C[C@]1(NC(=O)[C@@H]1C[C@@]2(CN1C(=O)[C@@H](NC(=O)[C@@H](NC(=O)[C@H]1CCCCN1C(C)C)C1CCCCC1)C(C)(C)C)C(C)(C)C21CCC1)C(=O)NS(=O)(=O)N(CC)C(C)C [Compound 120, (5R,8S)-7-[(2S)-2-{[(2S)-2-cyclohexyl-2-({[(2R)-1-isopropylpiperidin-2-yl]carbonyl}amino)acetyl]amino}-3,3-dimethylbutanoyl]-N-[(1R,2S)-1-({[ethyl(isopropyl)amino]sulfonyl}carbamoyl)-2-vinylcyclopropyl]-10,10-dimethyl-7-azadispiro[3.0.4.1]decane-8-carboxamide] | 10
C=C[C@@H]1C[C@]1(NC(=O)[C@@H]1C[C@@]2(CN1C(=O)[C@@H](NC(=O)[C@@H](NC(=O)c1cnn(-c3ccccc3)c1)C1CCCCC1)C(C)(C)C)C(C)(C)C21CCC1)C(=O)NS(=O)(=O)N1CCCC1 [Compound 184, (5R,8S)-7-{(2S)-2-[(cyclohexyl{[(1-phenyl-1H-pyrazol-4-yl)carbonyl]amino}acetyl)amino]-3,3-dimethylbutanoyl}-10,10-dimethyl-N-{(1R,2S)-1-[(pyrrolidin-1-ylsulfonyl)carbamoyl]-2-vinylcyclopropyl}-7-azadispiro[3.0.4.1]decane-8-carboxamide] | 35
